{
  "source": "patent US11911404B2",
  "about": "“Fucosylation and immune surveillance in melanoma” (H. LEE MOFFITT CANCER CENTER AND RESEARCH INSTITUTE, INC., priority 2017, dated 2024)",
  "key": {"SW1 mouse melanoma cells": {"test_system": "SW1 mouse melanoma cells", "assay": "SW1 mouse melanoma tumor growth in C3H mice fed control or L-fucose water, with or without CD4+/CD8+ T cell depletion", "type": "in vivo", "method": "(§1) To determine which immune cell populations were affected by L-fucose, another mouse melanoma model treated with control or L-fucose-supplemented water was used. First, 1.25×10^6 SW1 mouse melanoma cells were injected into the back right flanks of the mice and allowed the tumors to grow to 150 mm^3. At 150 mm^3 (14 days), 100 mM L-fucose was administered via the drinking water to half of the mice. Tumor growth was monitored (FIGS. 3A and 3B). Total and specific subpopulations of tumor-infiltrating lymphocytes were assessed by cell flow cytometric analysis (FIGS. 3C and 3D). Assessed populations included F4/80 (macrophage)-, Gr-1 (MDSCs)-, Cd11c (Dendritic cells)-, and DX5 (NK cells)-positive cells. For T-cells, we probed for CD3 (general T-cell marker) and further for CD4 and CD8 (for those T cell subpopulations). Of the CD4-positive cells, CD25 positive cells was used to elucidate the T regulatory cells. […] Both CD4 and CD8 positive T cells (CD3+ cells) increased in response to fucose. However, myeloid derived suppressor cells (MDSCs) decreased in response to dietary fucose supplementation.\nThis SW1 melanoma tumor/C3H mouse isogenic model was recapitulated to profile—in detail—tumor-infiltrating immune populations. >65% reduced tumor growth was observed during dietary L-fucose supplementation (FIG. 4A). […]"}, "[1]": {"test_system": "SW1 mouse melanoma tumors", "assay": "Flow cytometric analysis of tumor-infiltrating lymphocytes in SW1 tumors", "type": "in vivo", "conditions": "for tumor-infiltrating CD4+ and CD8+ T cells: dietary fucose vs control diet", "method": "as §1\nThis SW1 melanoma tumor/C3H mouse isogenic model was recapitulated to profile—in detail—tumor-infiltrating immune populations. >65% reduced tumor growth was observed during dietary L-fucose supplementation (FIG. 4A). […] Although most tumor-suppressive immune cell types were increased in the fucosylation-high, smaller tumors, tumor-infiltrating CD4+ and CD8+ T cells were most increased-doubled-in these tumors compared to control diet tumors (FIG. 4B, left and right). […] The presence and cytolytic activity of CD4+ T cells in tumors has been correlated with better patient survival rates and increased responsiveness to immunotherapies, respectively."}, "[2]": {"test_system": "SW1 mouse melanoma tumors", "assay": "Flow cytometric analysis of tumor-infiltrating lymphocytes in SW1 tumors", "type": "in vivo", "conditions": "L-fucose treatment, CD4+ T cell-depleted mice (FIG. 4D)"}, "SW1 mouse melanoma [3]": {"test_system": "SW1 mouse melanoma", "assay": "SW1 tumor growth in mice fed ±L-fucose and treated with anti-CTLA4 or anti-PD1", "type": "in vivo", "conditions": "SW1/C3H/HeJ model, oral 100 mM L-fucose from day 14; antibodies 20 mg/kg twice weekly", "method": "SW1 tumor growth curves in mice fed±100 mM L-fucose treated with either control (PBS) or […] (17A) or α-PD1 (17B). Combinations are color-coded as indicated. N=8 mice per condition. L-fucose was administered in the water starting on day 14 (refreshed twice weekly); α-CTLA4 or α-PD1 was administered (20 mg/kg each) twice weekly starting day 14. Compared with PBS control: #: p<0.001; *: p<0.05:\n(§2) Fucosylation of HLA-DRB1 occurs on amino acid N48 (mutation to G abolishes interaction with fucose-binding AAL lectin) (FIG. 16A). Increasing fucosylation (L-fucose treatment) promotes cell surface abundance of HLA-DRB1 (which is expected to increase CD4^+ T cell activation) (FIG. 16B). […] A lectin-mediated proximity ligation technique was developed to visualize fucosylated HLA-DRB1 in cells and tissues (FIG. 18)."}, "melanoma tumors": {"test_system": "melanoma tumors", "assay": "Immunofluorescent staining of tumors for immune cell infiltration (CD45, DX5)", "type": "in vivo, mouse", "conditions": "for infiltration of tumors by CD45+ immune cells (leukocytes) and NK cells: dietary fucose supplementation", "method": "(§3) To determine whether dietary or genetic modulation of fucosylation affects tumor growth and metastasis, we previously studied a mouse melanoma model in which tumor fucosylation was increased either by dietary supplementation (FIG. 2A) with 100 mM fucose or by overexpressing mouse FUK (FIG. 2B). […] To determine whether fucosylation affects tumor infiltration by immune cells, Immunofluorescent staining analysis of CD45 (general leukocyte marker, red) and DAPI (blue) was performed (FIG. 2C). To determine whether fucosylation affects tumor infiltration by NK cells, immunofluorescent staining analysis for DX5 (an NK cell marker, red) and DAPI (blue) was performed (FIG. 2D). Both NK cells and CD4+ T cells were elevated in samples from fucose supplemented mice."}, "HLA-DRB1": {"test_system": "HLA-DRB1", "assay": "Flow cytometry of cell surface presentation, normalized to PKH26", "type": "cell-based, human", "conditions": "WM793 cells, L-fucose treatment (FIG. 16B)", "method": "[…] Stained cells were subjected to flow cytometric analyses and quantitation of protein signal/PKH26 signal to quantitate protein per relatice surface area.\nFIGS. 16A and 16B show HLA-DRB1 is fucosylated on N48, and fucosylation promotes its cell surface presentation. […] AAL or HLA-DRB1 signals were normalized to PKH26 (total membrane stain).\nTo determine molecular mechanisms underlying the effects of fucosylation, a click-chemistry-based proteomic screen was performed to identify all fucosylated proteins in melanoma cells. 2 fucosylated immunomodulatory proteins, HLA-A and HLA-DRB1, were identified in melanoma cells. Fucose-binding lectin pulldown and immunoblot analysis confirmed the i) the expression and ii) the fucosylation of these 2 HLA proteins in melanoma cells, and further, indicate that their fucosylation is reduced when comparing patient-matched primary vs. metastatic cell lines (FIGS. 6A & 6C). The proximity ligation analysis technique, a cutting edge technique conventionally implemented to visualize 2 directly interacting proteins or post-translationally modified species of specific proteins when antibodies for the modifications are available (e.g., phosphorylated Tyr using an anti-phospho-Tyr antibody). […]"}, "1205Lu melanoma cells": {"test_system": "1205Lu melanoma cells", "assay": "LDH-release cytotoxicity assay, NK cell co-culture with pre-treated melanoma cells", "type": "cell-based, human", "conditions": "1205Lu cells pre-treated with 250 μM, 8 h co-culture", "method": "After 8 h, LDH levels released in the media were measured. *=p 0.02; •=p<0.001. FIGS. 5C and 5D show Immunoblot analysis using AAL lectin (another fucose-binding lectin) was performed to confirm the effects of FUTi (C) or L-fucose (D) on 1205Lu cells (96 h treatment). (•: p-value≥0.02)(*: p-value≥0.002).\nThe possibility that tumor fucosylation can directly activate the tumor cell-killing activity of NK cells was explored. To assay for this possibility, a lactate dehydrogenase (LDH)-release-based assay was used in which the fucosylation of LU1205 melanoma cells was modulated prior to co-culture with NK cells. Specifically, primary NK cells isolates (5A) or immortalized NK92 cell line (5B) were co-cultured with 1205Lu melanoma cells that were pre-treated with DMSO, 250 μM pan-fucosyltransferase inhibitor (FUTi), or 250 μM L-fucose for 8 hours. Non-radioactive LDH-release cytotoxicity assay was performed to measure extent of NK cell-mediated killing. […] (•: p-value≥0.02) (*: p-value≥0.002)."}, "SW1 mouse melanoma [4]": {"test_system": "SW1 mouse melanoma", "assay": "Growth of control, H2K1- or IEβ-knocked down SW1 tumors in mice fed ±100 mM L-fucose water", "type": "in vivo", "excerpt": "N=7 mice/condition. •:p<0.01. […] (*initiate L-fucose).\nas §2"}, "mouse melanoma model": {"test_system": "mouse melanoma model", "assay": "Mouse melanoma model, dietary fucose supplementation: tumor growth and metastasis", "type": "in vivo", "method": "as §3"}, "RPS3": {"test_system": "RPS3", "assay": "RPS3 fucosylation by lectin pull-down after cellular stressors", "type": "cell-based, human", "conditions": "melanoma cells treated 24-48 h, lectin PD (FIG. 12)", "excerpt": "Specifically, (11A) RPS3 level in increased in melanoma cells relative to primary melanocytes (HEMN, human epidermal melanocytes). (11B) RPS3 is increased in melanoma through progression in human samples by TMA. TMA stained and analyzed by AQUA at Moffitt Cancer Center Department of Clinical Testing Development Core Facility. (11C) Nuclear RPS3 level increases with stage in matched primary and metastatic (MET) samples relative to HEMN cells (cell fractions analyzed by western blot [left]; cells analyzed by immunofluorescence [right]). (11D) Expression of RPS3-mDDK in vertical growth phase cells confers behavior associated with metastatic disease. Increased anchorage-independent growth [left], increased motility [right]. It was noted that Fucosylated RPS3 level increases in response to cellular stressors. Melanoma cells treated for 24-48 h with serum deprivation (SD), thapsigargin (T, thap) or mutant BRAF-inhibitor (Plexxikon, PLX) and assayed for RPS3 fucosylation by lectin PD (FIG. 12)."}},
  "note": "“Also recorded” adds a separate entry of the source.",
  "data": [
    {"compound": "C[C@H](O)[C@@H](O)[C@@H](O)[C@H](O)C=O", "note": "[L-fucose]", "values": [
      {"measurement": "L-fucose-triggered tumor suppression after loss of CD4+ T cells", "setting": "SW1 mouse melanoma cells; CD4+ T cell-immunodepleted mice (FIG. 4C left)", "value": "abrogated tumor suppression"},
      {"measurement": "reduced tumor growth", "setting": "SW1 mouse melanoma cells; SW1/C3H model, dietary 100 mM L-fucose in water, 45 days (FIG. 4A)", "value": "> 65", "unit": "%"},
      {"measurement": "increase of NK cells, T cells (CD4+ and CD8+), dendritic cells and macrophage", "setting": "[1]; administration of fucose", "value": "10-50 fold"},
      {"measurement": "overall immune infiltration of tumors", "setting": "[1]; dietary fucose supplementation, 100 mM in drinking water", "value": "increases"},
      {"measurement": "myeloid derived suppressor cells (MDSCs) in tumors", "setting": "[1]; dietary fucose supplementation, listed as fucose", "value": "decrease"},
      {"measurement": "tumor-infiltrating CD4+ and CD8+ T cells", "setting": "[1]", "value": "doubled"},
      {"measurement": "tumor-infiltrating CD4+ and CD8+ T cells", "setting": "[1]; listed as fucose", "value": "increase"},
      {"measurement": "infiltrating immune cells per gram of tumor vs control diet", "setting": "[1]; tumors from L-fucose-supplemented mice", "value": "10-50 fold"},
      {"measurement": "numbers of intratumoral CD8+ T cells, CD11c+ dendritic cells and NK cells", "setting": "[2]", "value": "reduced numbers"},
      {"measurement": "suppression of melanoma growth compared with checkpoint antibodies", "setting": "SW1 mouse melanoma [3]", "value": "more significantly than anti-CTLA4 or anti-PD1 alone; also recorded: more tumor suppressive than α-CTLA4 or α-PD1 alone"},
      {"measurement": "infiltration of tumors by CD45+ immune cells (leukocytes) and NK cells", "setting": "melanoma tumors", "value": "significant increases"},
      {"measurement": "infiltration of tumors by CD45+ immune cells (leukocytes) and NK cells", "setting": "melanoma tumors; listed as fucose", "value": "increased"},
      {"measurement": "NK cells and CD4+ T cells in tumor samples", "setting": "melanoma tumors; fucose supplemented mice, immunofluorescence (FIGS. 2C, 2D)", "value": "elevated"},
      {"measurement": "cell surface abundance of HLA-DRB1", "setting": "HLA-DRB1", "value": "promotes"},
      {"measurement": "NK cell-mediated tumor-cell killing (LDH release), immortalized human NK cells", "setting": "1205Lu melanoma cells", "value": "sufficient to induce the tumor-cell killing activity"},
      {"measurement": "NK cell-mediated tumor-cell killing (LDH release), primary human NK cells", "setting": "1205Lu melanoma cells", "value": "sufficient to induce the tumor-cell killing activity"},
      {"measurement": "difference in ±L-fuc tumor growth curves in H2K1 knocked-down tumors", "setting": "SW1 mouse melanoma [4]; shH2K1, ±100 mM L-fucose water", "value": "not significant"},
      {"measurement": "L-fucose-triggered tumor suppression in IEβ (HLA-DRB1 ortholog) knocked-down tumors", "setting": "SW1 mouse melanoma [4]; shIEβ vs control shRNA (SCR), ±100 mM L-fucose water", "value": "abrogates; also recorded: not significant"},
      {"measurement": "reduction in tumor growth", "setting": "mouse melanoma model; L-fucose supplementation, earlier model", "value": "> 50", "unit": "%"},
      {"measurement": "block of tumor growth and metastasis", "setting": "mouse melanoma model; dietary L-fucose supplementation, mouse models", "value": "> 50", "unit": "%"},
      {"measurement": "tumor suppression", "setting": "mouse melanoma model; dietary supplementation with 100 mM fucose (FIG. 2A)", "value": "increased tumor suppression"}
    ]},
    {"compound": "C/C=C(/C)C(=O)O[C@H]1C(C)=C2[C@H]([C@@H]1OC(=O)CCCCCCC)[C@@](C)(OC(C)=O)C[C@H](OC(=O)CCC)[C@@]1(O)[C@H]2OC(=O)[C@@]1(C)O", "note": "[thapsigargin]", "values": [
      {"measurement": "fucosylated RPS3 level", "setting": "RPS3", "value": "increases"}
    ]}
  ]
}
